The text below walks through data of patent publication US20250346571A1, “BICYCLIC DERIVATIVE PARP INHIBITOR AND USE THEREOF” (XIZANG HAISCO PHARMACEUTICAL CO., LTD., priority 2022, published 2025).

Some results are limits rather than exact numbers.

In one data set the target is PARP-1 enzyme (Homo sapiens (Human), UniProt P09874). The experiment in a line: PARP-1 enzyme activity test (chemical fluorescence detection kit, BPS Bioscience). Type of data set: biochemical. Particulars: grades; read-out: PARP-1 enzyme activity IC50. The procedure: PARP-1 chemical fluorescence detection kit was purchased from BPS Bioscience. The histone solution in the kit was diluted 5× with 1×PBS, and 25 μL of the diluted histone solution was added to a microwell plate and incubated overnight at 4° C. After the incubation, the plate was washed three times with PBST (0.05% Tween-20). 100 μL of the blocking solution was added to the microwell plate and incubated at 25° C. for 90 minutes. After the incubation was completed, the plate was washed three times with PBST. 2.5 μL of compounds at different concentrations diluted in test buffer and 12.5 μL of substrate mixed solution (1.25 μL 10×PARP test buffer; 1.25 μL 10×PARP test mixed solution; 2.5 μL Activated DNA, 7.5 μL double-distilled water) were added to the microwell plate. The PARP-1 enzyme was diluted to 2 ng/μL, […] was added to the microwell plate, and the reaction system was incubated at 25° C. for 60 minutes.
Sequence of PARP-1 enzyme (P09874 whole entry): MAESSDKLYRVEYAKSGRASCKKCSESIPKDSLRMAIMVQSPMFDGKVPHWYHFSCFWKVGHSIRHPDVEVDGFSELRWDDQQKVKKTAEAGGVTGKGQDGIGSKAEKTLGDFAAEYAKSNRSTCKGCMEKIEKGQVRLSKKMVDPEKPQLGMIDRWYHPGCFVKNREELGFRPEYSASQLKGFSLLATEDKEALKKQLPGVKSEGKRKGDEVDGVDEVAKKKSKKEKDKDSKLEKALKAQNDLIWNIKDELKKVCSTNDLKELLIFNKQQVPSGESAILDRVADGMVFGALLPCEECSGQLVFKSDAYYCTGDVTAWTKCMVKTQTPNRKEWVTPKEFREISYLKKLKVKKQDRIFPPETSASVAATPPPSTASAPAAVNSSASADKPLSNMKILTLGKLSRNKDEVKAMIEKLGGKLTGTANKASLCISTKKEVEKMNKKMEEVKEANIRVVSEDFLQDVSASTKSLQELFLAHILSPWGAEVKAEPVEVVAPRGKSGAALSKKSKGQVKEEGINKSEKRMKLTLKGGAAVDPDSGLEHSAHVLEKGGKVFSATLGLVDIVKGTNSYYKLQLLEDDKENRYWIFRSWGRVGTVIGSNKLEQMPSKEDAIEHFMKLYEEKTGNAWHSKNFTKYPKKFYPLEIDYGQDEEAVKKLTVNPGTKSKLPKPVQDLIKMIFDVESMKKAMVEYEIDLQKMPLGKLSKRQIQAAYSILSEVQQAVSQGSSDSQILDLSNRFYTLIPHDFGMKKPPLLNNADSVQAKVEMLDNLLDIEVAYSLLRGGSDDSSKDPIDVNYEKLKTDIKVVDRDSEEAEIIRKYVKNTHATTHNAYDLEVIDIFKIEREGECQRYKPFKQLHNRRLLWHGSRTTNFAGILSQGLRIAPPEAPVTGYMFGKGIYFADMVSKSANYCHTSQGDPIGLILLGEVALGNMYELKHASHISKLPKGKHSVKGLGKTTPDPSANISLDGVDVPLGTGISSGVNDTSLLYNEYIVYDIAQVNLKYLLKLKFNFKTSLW
After the incubation was completed, the plate was washed three times with PBST. Streptavidin-HRP was diluted 50× with a blocking solution, and 25 μL of the diluent was added to the microwell plate and incubated at 25° C. for 30 minutes. After the incubation, the plate was washed three times with PBST. ELISA ECL substrate A and substrate B were uniformly mixed at a ratio of 1:1 (v/v), 50 μL of the mixture was added to the microwell plate, and the chemiluminescence value was read.
The inhibition rate was calculated according to formula 1, where RLUsample was the readout of the compound well, RLUmax was the readout of the solvent control well, and RLUmin was the readout of the control well without the PARP-1 enzyme. Curve fitting was performed by four parameters (log(inhibitor) vs. response—Variable slope) using GraphPad Prism software, and the ICso value was calculated.
Inhibition %=(1−(RLUsample−RLUmin)/(RLUmax−RLUmin))×100% (formula 1)

A further data set has as its system MDA-MB-436 cells. The experiment in a line: MDA-MB-436 cell activity test (CellTiter-Glo, 7 days). In kind it is cell-based. Particulars: Homo sapiens. Here is the method: Breast tumor cells MDA-MB-436 were purchased from ATCC, the culture medium was Leibovitz's L-15+10% FBS, and the cells were cultured in a CO2-free incubator at 37° C. On day 1, the cells in the exponential growth phase were collected, and the cell suspension was adjusted to 4000 cells/135 μL with the culture medium. 135 μL of the cell suspension was added to each well of a 96-well cell culture plate and incubated overnight. On day 2, compounds at different concentrations were added, and the plate was placed in the incubator and incubated for 7 days. After the incubation was completed, according to operation instructions for a CellTiter-Glo kit (Promega, G7573), 75 μL of CTG solution, which was already pre-melted and equilibrated to room temperature, was added to each well, and the mixture was uniformly mixed for 2 min using a microplate shaker. The plate was placed at room temperature for 10 min, and then […] were measured using an Envision2104 plate reader (PerkinElmer). The inhibition rate was calculated using formula (1), where RLUcompound was the readout of the drug treated group, RLUcontrol was the average value of the vehicle control group, and RLUblank was the average value of the cell-free well. The IC50 value was calculated using GraphPad Prism software
For orientation: In ATP-based viability assays light output follows the ATP content of the culture.

The nature of data set [1]: Pharmacokinetic test in rats. Type of data set: in vivo, SD rats. The procedure: 3.1 Experimental animal: male SD rats, about 220 g, 6-8 weeks old, 6 rats/compound, purchased from Chengdu Ddossy Experimental Animals Co., Ltd.
3.2 Experimental design: on the day of the experiment, 30 SD rats were randomly grouped according to their body weights. The animals were fasted with water available for 12 to 14 h one day before the administration and were fed 4 h after the administration.
Before and after the administration, 0.15 ml of blood was taken from the orbit of the animals under isoflurane anesthesia and placed in an EDTAK2 centrifuge tube. The blood was centrifuged at 5000 rpm and 4° C. for 10 min to collect plasma. The blood collection time points for the intravenous administration group and intragastric administration group were 0, 5 min, 15 min, 30 min, 1 h, 2 h, 4 h, 6 h, 8 h and 24 h. The brain tissues were collected 24 hours after administration, rinsed with cold physiological saline to remove the residual blood on the surface, drained out and then homogenized. Before analysis and detection, all samples were stored at −80° C. The samples were analyzed quantitatively by LC-MS/MS.

Data set [2] can be described thus: Pharmacokinetic test in monkeys. In kind it is in vivo, cynomolgus monkeys. The procedure:
6.1 Experimental animal: male cynomolgus monkeys, 3-5 kg, 3-6 years old, 4 monkeys/compound, purchased from Suzhou Xishan Biotechnology Inc.
6.2 Test method: On the day of the experiment, 8 monkeys were randomly grouped according to their body weights. The animals were fasted with water available for 14 to 18 h one day before the administration, and were fed 4 h after the administration.
Before and after the administration, 1.0 mL of blood was taken from the limb veins and placed in an EDTAK2 centrifuge tube. The blood was centrifuged at 5000 rpm and 4° C. for 10 min to collect plasma. The blood collection time points for the intravenous administration group were 0, 5 min, 15 min, 30 min, 1 h, 2 h, 4 h, 6 h, 8 h, 10 h, 12 h, 24 h and 48 h. Before analysis and detection, all samples were stored at −80° C. The samples were analyzed quantitatively by LC-MS/MS.

Where [3] appears, read: male, SD, rat, iv, rats, i.v. 2.5 mg/kg, plasma.
[4] abbreviates: male, cynomolgus monkey, iv, monkeys, i.v. (1 mg/kg), plasma.

With `Cn1cc(C(=O)Nc2ccc(N3CCN(Cc4ccc5nc(C(F)F)c(=O)[nH]c5c4F)CC3)c(F)n2)cn1` [Compound 14, N-(5-(4-((2-(difluoromethyl)-5-fluoro-3-oxo-3,4-dihydroquinoxalin-6-yl)methyl)piperazin-1-yl)-6-fluoropyridin-2-yl)-1-methyl-1H-pyrazole-4-carboxamide], the IC50 (as a rule, the concentration needed to halve the response being measured) was less than 5 nM on PARP-1 enzyme and 24.3 nM with MDA-MB-436 cells (MDA-MB-436, 168 h, 7 days incubation). For the same compound, the inhibition at 10 µM in the data set with MDA-MB-436 cells (10 μM, MDA-MB-436 cells, read-out: Max inh. % 10 μM) worked out at 73.2%. Further, the “pharmacokinetic characteristics in rats” value in data set [1] (conclusion in words) is “good pharmacokinetic characteristics”. In addition, the area under the curve AUC(0-t) (usually the area under the concentration-time curve up to a stated or last time point) turned out to be 48700 ± 4800 ng·h/mL in data set [1] (setting [3]); 138000 ± 6650 ng·h/mL in data set [1] (male, SD, rat, po, rats, i.g. 10 mg/kg, plasma); 47100 ± 6260 ng·h/mL in data set [2] (setting [4]); 80100 ± 6960 ng·h/mL in data set [2] (male, cynomolgus monkey, po, monkeys, i.g. (3 mg/kg), plasma). The clearance (commonly a measure of how efficiently the substance is removed, as volume per time) was found to be 0.859 ± 0.09 mL/min/kg in data set [1] (setting [3]) and 0.348 ± 0.057 mL/min/kg in data set [2] (setting [4]). For the same compound, the Vd in data set [1] (male, SD, rat, iv, rats, i.v. 2.5 mg/kg, plasma, read-out: Vdss) stood at 0.148 ± 0.01 L/kg; in data set [2] (male, cynomolgus monkey, iv, monkeys, i.v. (1 mg/kg), plasma, read-out: Vdss), 0.151 ± 0.022 L/kg. In addition, the bioavailability (commonly the share of a dose that reaches the circulation, judged against a reference dose that is usually intravenous) in data set [1] (male, SD, rat, plasma, po, rats, i.g. 10 mg/kg) is 70.9 ± 3.4%; in data set [2] (male, cynomolgus monkey, plasma, po, monkeys, i.g. (3 mg/kg)), 56.8 ± 4.9%. For the same compound, the “pharmacokinetic characteristics in monkeys” value in data set [2] (conclusion in words) is “good pharmacokinetic characteristics”.
